From ChEMBL document CHEMBL3991601, “The target landscape of clinical kinase drugs” (Science, 2017)
Activity calls are given as the source filed them. For most assays here, no stated cut-off is given here; in the data, actives have a measured Kd and inactives only a lower limit.

Experiments:
[1] = molecular target: T1, Long-chain-fatty-acid--CoA ligase 5 (Homo sapiens, UniProt Q9ULC5)
T1 sequence (Q9ULC5 whole entry): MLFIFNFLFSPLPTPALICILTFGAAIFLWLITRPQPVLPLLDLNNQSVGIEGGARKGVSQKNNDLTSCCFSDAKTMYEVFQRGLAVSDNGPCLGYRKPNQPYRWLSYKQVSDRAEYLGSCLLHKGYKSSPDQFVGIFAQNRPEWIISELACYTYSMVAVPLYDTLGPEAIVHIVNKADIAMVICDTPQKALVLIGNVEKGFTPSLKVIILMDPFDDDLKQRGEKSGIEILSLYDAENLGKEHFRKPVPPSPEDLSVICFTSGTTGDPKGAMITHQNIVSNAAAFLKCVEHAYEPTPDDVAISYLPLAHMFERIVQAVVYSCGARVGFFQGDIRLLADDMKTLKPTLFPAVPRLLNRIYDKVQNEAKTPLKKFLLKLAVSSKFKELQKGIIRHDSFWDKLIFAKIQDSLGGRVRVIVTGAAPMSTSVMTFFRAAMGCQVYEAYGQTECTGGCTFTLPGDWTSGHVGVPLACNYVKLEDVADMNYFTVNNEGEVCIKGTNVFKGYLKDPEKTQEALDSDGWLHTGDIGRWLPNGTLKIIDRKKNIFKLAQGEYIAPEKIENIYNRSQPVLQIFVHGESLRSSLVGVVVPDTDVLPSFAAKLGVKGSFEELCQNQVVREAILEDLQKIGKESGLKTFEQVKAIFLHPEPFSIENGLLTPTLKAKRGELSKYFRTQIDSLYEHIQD

[2] = molecular target: T2, Breakpoint cluster region protein (Homo sapiens, UniProt P11274)
T2 sequence (P11274 whole entry): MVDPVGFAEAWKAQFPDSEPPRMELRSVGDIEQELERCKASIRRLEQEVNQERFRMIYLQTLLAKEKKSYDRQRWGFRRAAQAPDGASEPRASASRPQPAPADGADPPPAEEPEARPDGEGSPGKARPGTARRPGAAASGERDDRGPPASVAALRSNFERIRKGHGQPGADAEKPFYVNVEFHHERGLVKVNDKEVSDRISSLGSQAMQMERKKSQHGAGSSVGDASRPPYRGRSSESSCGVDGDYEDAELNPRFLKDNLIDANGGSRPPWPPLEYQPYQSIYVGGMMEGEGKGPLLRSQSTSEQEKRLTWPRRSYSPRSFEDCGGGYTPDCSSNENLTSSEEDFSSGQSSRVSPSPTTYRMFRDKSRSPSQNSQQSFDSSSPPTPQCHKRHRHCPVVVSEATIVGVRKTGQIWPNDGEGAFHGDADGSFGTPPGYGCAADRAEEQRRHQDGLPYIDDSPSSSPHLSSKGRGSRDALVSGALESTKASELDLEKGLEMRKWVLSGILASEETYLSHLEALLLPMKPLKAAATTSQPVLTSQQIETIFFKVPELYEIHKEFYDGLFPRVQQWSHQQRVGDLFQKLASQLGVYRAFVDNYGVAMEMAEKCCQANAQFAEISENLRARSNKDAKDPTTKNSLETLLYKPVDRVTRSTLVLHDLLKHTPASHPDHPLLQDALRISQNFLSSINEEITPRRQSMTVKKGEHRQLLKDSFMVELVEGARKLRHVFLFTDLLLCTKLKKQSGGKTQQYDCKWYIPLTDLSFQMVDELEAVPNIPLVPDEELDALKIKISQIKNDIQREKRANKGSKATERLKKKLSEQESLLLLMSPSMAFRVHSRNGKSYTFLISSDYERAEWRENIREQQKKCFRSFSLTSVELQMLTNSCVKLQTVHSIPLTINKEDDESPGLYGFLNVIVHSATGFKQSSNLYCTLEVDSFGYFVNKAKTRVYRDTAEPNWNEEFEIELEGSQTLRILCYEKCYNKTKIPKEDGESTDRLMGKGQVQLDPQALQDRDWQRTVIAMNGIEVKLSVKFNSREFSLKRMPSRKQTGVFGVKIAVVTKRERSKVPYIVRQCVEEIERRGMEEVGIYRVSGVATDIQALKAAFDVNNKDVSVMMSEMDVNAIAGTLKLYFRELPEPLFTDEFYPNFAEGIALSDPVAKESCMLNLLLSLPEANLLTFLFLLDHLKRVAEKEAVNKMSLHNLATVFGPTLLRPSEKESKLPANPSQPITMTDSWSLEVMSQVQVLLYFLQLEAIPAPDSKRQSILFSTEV

[3] = molecular target: Tyrosine-protein kinase Lyn (Homo sapiens, UniProt P07948)
[4] = molecular target: cAMP-dependent protein kinase catalytic subunit gamma (Homo sapiens, UniProt P22612)
[5] = molecular target: Protein kinase C alpha type (Homo sapiens, UniProt P17252)
[6] = molecular target: T3, Ras-related protein Rab-10 (Homo sapiens, UniProt P61026)
T3 sequence (P61026 whole entry): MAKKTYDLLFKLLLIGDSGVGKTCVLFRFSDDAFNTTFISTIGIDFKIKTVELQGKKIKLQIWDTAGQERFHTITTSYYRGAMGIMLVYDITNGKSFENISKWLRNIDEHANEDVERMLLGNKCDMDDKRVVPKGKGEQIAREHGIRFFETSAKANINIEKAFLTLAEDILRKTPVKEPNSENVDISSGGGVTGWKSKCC

[7] = molecular target: Mitogen-activated protein kinase kinase kinase 20 (Homo sapiens, UniProt Q9NYL2)

Measured: Kd

Tyrosine-protein kinase Lyn, sequence (P07948 whole entry): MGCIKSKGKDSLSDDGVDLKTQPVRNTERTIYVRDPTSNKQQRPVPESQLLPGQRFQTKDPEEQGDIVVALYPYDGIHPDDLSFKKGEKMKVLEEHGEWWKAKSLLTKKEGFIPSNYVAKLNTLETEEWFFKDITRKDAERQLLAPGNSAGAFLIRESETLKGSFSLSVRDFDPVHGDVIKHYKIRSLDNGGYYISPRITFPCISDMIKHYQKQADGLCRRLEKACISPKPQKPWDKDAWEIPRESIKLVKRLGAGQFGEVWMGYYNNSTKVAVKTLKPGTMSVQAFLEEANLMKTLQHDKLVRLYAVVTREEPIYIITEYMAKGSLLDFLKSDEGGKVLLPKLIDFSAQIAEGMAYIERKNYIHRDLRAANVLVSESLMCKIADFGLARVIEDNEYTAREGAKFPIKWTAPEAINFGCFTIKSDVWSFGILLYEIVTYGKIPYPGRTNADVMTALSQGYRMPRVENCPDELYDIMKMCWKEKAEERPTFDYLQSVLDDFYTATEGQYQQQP
Mitogen-activated protein kinase kinase kinase 20, sequence (Q9NYL2 whole entry): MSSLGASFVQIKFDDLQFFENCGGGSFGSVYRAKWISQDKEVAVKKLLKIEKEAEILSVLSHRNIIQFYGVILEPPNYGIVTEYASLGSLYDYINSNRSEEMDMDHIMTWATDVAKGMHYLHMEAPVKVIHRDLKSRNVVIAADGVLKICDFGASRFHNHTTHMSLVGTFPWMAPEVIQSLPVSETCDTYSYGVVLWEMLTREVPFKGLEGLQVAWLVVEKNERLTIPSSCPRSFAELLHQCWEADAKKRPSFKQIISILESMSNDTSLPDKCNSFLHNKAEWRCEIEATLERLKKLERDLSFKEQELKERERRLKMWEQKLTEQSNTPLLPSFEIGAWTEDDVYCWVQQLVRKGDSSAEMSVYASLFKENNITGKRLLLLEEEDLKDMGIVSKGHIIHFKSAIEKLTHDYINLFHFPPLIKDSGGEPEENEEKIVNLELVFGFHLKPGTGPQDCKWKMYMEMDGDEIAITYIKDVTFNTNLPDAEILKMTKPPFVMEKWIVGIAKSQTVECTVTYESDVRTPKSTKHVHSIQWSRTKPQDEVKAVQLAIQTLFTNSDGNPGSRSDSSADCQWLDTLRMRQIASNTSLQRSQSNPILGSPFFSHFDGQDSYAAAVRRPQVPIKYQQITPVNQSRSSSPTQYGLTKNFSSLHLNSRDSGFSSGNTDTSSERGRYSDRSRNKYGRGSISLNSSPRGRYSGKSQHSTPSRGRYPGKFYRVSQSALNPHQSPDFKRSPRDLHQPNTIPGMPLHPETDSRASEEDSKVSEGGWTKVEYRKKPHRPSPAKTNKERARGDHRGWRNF
cAMP-dependent protein kinase catalytic subunit gamma, sequence (P22612 whole entry): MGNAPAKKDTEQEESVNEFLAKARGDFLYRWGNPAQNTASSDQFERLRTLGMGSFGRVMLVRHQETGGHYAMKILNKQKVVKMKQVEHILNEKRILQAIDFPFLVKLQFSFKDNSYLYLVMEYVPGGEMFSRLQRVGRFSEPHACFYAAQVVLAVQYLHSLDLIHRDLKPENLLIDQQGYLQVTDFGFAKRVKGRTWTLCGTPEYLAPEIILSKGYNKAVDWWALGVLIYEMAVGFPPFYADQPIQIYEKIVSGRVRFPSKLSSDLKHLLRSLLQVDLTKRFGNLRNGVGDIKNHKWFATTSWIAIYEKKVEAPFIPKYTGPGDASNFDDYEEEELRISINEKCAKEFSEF

CNC(=O)c1cc(COc2nnc(Nc3ccc(Cl)cc3)c3ccoc23)ccn1 [TELATINIB]
inactive: [1] > 30 µM | [2] > 30 µM | [3] > 30 µM | [4] > 30 µM | [5] > 30 µM | [6] > 30 µM
0.477 µM: [7]

COc1cc(F)c(F)c(Nc2ccc(I)cc2F)c1NS(=O)(=O)C1(C[C@H](O)CO)CC1 [REFAMETINIB]
inactive: [1] > 30 µM | [2] > 30 µM | [3] > 30 µM | [4] > 30 µM | [5] > 30 µM | [6] > 30 µM | [7] > 30 µM

COc1cccc2cc(-c3nc([C@H]4CC[C@H](C(=O)O)CC4)n4ncnc(N)c34)[nH]c12 [OSI-027]
inactive: [1] > 30 µM | [2] > 30 µM | [3] > 30 µM | [4] > 30 µM | [5] > 30 µM | [6] > 30 µM | [7] > 30 µM

CNC(=O)c1ccc(Nc2ncc(C(F)(F)F)c(NCc3nccnc3N(C)S(C)(=O)=O)n2)cc1 [DEFACTINIB]
inactive: [1] > 30 µM | [2] > 30 µM | [3] > 30 µM | [4] > 30 µM | [5] > 30 µM | [6] > 30 µM | [7] > 30 µM

CC(C)(O)CC(=O)NCCn1ccc2ncnc(Nc3ccc(Oc4cccc(C(F)(F)F)c4)c(Cl)c3)c21 [TAK-285]
inactive: [1] > 30 µM | [2] > 30 µM | [3] > 30 µM | [4] > 30 µM | [5] > 30 µM | [6] > 30 µM | [7] > 30 µM

c1cc(OCCN2CCCCC2)cc(-c2n[nH]c3ccc(-c4nc[nH]n4)cc23)c1 [CC-401]
inactive: [1] > 30 µM | [2] > 30 µM | [3] > 30 µM | [4] > 30 µM | [5] > 30 µM | [6] > 30 µM | [7] > 30 µM

COc1cc(Nc2ncc(F)c(Nc3ccc4c(n3)N(COP(=O)(O)O)C(=O)C(C)(C)O4)n2)cc(OC)c1OC [FOSTAMATINIB]
inactive: [1] > 30 µM | [2] > 30 µM | [3] > 30 µM | [4] > 30 µM | [5] > 30 µM | [6] > 30 µM | [7] > 30 µM

COc1ccc2c(OCc3nnc4ccc(-c5ccccc5)nn34)ccnc2c1 [AMG-208]
inactive: [1] > 30 µM | [2] > 30 µM | [3] > 30 µM | [5] > 30 µM | [6] > 30 µM | [7] > 30 µM
0.002 µM: [4]

CC[C@@](C)(Nc1ccnc(-c2c[nH]c3ncccc23)n1)C(=O)NCC(F)(F)F [DECERNOTINIB]
inactive: [1] > 30 µM | [2] > 30 µM | [3] > 30 µM | [4] > 30 µM | [6] > 30 µM | [7] > 30 µM
active: [5] 0.117 µM

C=CCn1c(=O)c2cnc(Nc3ccc(N4CCN(C)CC4)cc3)nc2n1-c1cccc(C(C)(C)O)n1 [ADAVOSERTIB]
inactive: [1] > 30 µM | [3] > 30 µM | [4] > 30 µM | [5] > 30 µM | [6] > 30 µM | [7] > 30 µM
active: [2] 1.91 µM

Cc1c(Cn2c(C)nc3c(C(=O)O)cc(N4CCOCC4)cc32)cccc1C(F)(F)F [GSK-2636771]
inactive: [1] > 30 µM | [2] > 30 µM | [3] > 30 µM | [4] > 30 µM | [5] > 30 µM | [6] > 30 µM | [7] > 30 µM

Cn1cc(-c2[nH]c3cc(NC(=O)[C@H](N)C4CCCCC4)cc4c3c2C=NNC4=O)cn1
inactive: [1] > 30 µM | [4] > 30 µM | [5] > 30 µM | [6] > 30 µM | [7] > 30 µM
active: [2] 1.11 µM | [3] 0.331 µM

NC(=O)c1ccc(N(C(N)=O)c2c(F)cccc2F)nc1-c1ccc(F)cc1F [VX-702]
inactive: [1] > 30 µM | [2] > 30 µM | [3] > 30 µM | [4] > 30 µM | [5] > 30 µM | [6] > 30 µM | [7] > 30 µM

COCCN1CCN(Cc2ccc(-c3n[nH]c4c3C(=O)c3c(NC(=O)NN5CCOCC5)cccc3-4)cc2)CC1 [RGB-286638]
active: [2] 1.24 µM | [7] 1.11 µM
inactive: [1] > 30 µM | [3] > 30 µM | [4] > 30 µM | [5] > 30 µM | [6] > 30 µM

COc1cccc(Nc2ncnn3ccc(CN4CC[C@@H](N)[C@H](O)C4)c23)c1 [BMS-690514]
inactive: [1] > 30 µM | [2] > 30 µM | [4] > 30 µM | [6] > 30 µM
active: [3] 0.887 µM | [5] 1.56 µM | [7] 0.282 µM

O=C(NC[C@H](O)CO)c1ccncc1Nc1ccc(I)cc1F [PIMASERTIB]
inactive: [1] > 30 µM | [2] > 30 µM | [3] > 30 µM | [4] > 30 µM | [5] > 30 µM | [6] > 30 µM | [7] > 30 µM

Cc1cc(-c2cc(OC(=O)c3ccccc3)ccc2Cl)cc2nnc(Nc3ccc(OCCN4CCCC4)cc3)nc12 [TG100-801]
active: [2] 0.065 µM
inactive: [1] > 30 µM | [3] > 30 µM | [4] > 30 µM | [5] > 30 µM | [6] > 30 µM | [7] > 30 µM

COc1cc2nccc(Oc3ccc(NC(=O)C4(C(=O)Nc5ccc(F)cc5)CC4)cc3)c2cc1OC [CABOZANTINIB]
inactive: [1] > 30 µM | [4] > 30 µM | [5] > 30 µM | [6] > 30 µM | [7] > 30 µM
active: [2] 0.342 µM | [3] 1.33 µM

C[C@@H]1COC(Nc2ccc3ncnc(Nc4ccc(OCc5nccs5)c(Cl)c4)c3c2)=N1 [VARLITINIB]
inactive: [1] > 30 µM | [2] > 30 µM | [3] > 30 µM | [4] > 30 µM | [5] > 30 µM | [6] > 30 µM | [7] > 30 µM

Cc1c(NC(=O)OC[C@@H]2COCCN2)cn2ncnc(Nc3ccc4c(cnn4Cc4cccc(F)c4)c3)c12 [AC-480]
inactive: [1] > 30 µM | [2] > 30 µM | [3] > 30 µM | [4] > 30 µM | [5] > 30 µM | [6] > 30 µM | [7] > 30 µM
